The source of these data is patent US7227023B2, “Quinoline 3-amino chroman derivatives” (Wyeth, priority 2003, dated 2007).

In test [1] the target is T1, human 5-HT1A receptors (Homo sapiens, UniProt P08908).
T1 construct: expressed in transfected cells; host or cells: CHO cells, stably transfected
T1 sequence (P08908 1-422): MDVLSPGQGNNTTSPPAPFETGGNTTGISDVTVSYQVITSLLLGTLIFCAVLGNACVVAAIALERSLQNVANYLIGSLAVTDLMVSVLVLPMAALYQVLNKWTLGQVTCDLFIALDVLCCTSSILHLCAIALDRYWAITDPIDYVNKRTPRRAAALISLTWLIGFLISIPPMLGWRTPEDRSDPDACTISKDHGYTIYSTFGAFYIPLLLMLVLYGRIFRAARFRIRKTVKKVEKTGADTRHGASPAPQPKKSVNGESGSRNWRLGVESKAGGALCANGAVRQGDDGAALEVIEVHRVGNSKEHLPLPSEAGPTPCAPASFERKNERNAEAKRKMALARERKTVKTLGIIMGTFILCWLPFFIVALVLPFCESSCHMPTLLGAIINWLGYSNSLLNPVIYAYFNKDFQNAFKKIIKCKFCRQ
The test is described as follows: [3H] 8-OH-DPAT displacement, affinity for the 5-HT1A receptor. It is filed as binding. The note with it: CHO cells stably transfected with human 5-HT1A receptors. An excerpt:
High affinity for the serotonin 5-HT1A receptor was established by testing the claimed compound's ability to displace [^3H] 8-OH-DPAT (dipropylaminotetralin) from the 5-HT1A serotonin receptor following a modification of the procedure of Hall et al. (J. Neurochem., 1985, 44: 1685) which utilizes CHO cells stably transfected with human 5-HT1A receptors.

Test [2] addresses T2, cloned human 5-HT1A receptors (Homo sapiens, UniProt P08908).
T2 construct: expressed in transfected cells
T2 sequence (P08908 1-422): T1 sequence (P08908 1-422)
The test is described as follows: 35S-GTPγS binding assay, agonist activity at 5-HT1A receptors. It is filed as biochemical. The note with it: membranes containing cloned human 5-HT1A receptors; for EC50: read-out: 5-HT1A Function EC50; for Emax: value in parentheses, read-out: 5-HT1A Function Emax (maximum stimulatory effect). An excerpt: The agonist activity at 5-HT1A receptors was established by using a ^35S-GTPγS binding assay similar to that used by Lazareno and Birdsall (Br. J. Pharmacol., 1993, 109:1120). The binding assay determines the test compound's ability to affect the binding of ^35S-GTPγS to membranes containing cloned human 5-HT1A receptors. Agonists produce an increase in binding whereas antagonists produce no increase but rather reverse the effects of the standard agonist 8-OH-DPAT. The test compound's maximum stimulatory effect is represented as the Emax, while its potency is defined by the EC50.

Test [3] concerns the target T3, 5-HT Transporter (Rattus norvegicus, UniProt P31652).
T3 construct: ability to displace ^3H-paroxetine from male rat cortical membranes; from tissue; host or cells: male rat cortex (membranes)
The test is described as follows: 3H-paroxetine displacement, affinity for the serotonin transporter. In kind it is binding. The conditions noted are these: male rat cortical membranes.

T3 sequence (P31652 whole entry): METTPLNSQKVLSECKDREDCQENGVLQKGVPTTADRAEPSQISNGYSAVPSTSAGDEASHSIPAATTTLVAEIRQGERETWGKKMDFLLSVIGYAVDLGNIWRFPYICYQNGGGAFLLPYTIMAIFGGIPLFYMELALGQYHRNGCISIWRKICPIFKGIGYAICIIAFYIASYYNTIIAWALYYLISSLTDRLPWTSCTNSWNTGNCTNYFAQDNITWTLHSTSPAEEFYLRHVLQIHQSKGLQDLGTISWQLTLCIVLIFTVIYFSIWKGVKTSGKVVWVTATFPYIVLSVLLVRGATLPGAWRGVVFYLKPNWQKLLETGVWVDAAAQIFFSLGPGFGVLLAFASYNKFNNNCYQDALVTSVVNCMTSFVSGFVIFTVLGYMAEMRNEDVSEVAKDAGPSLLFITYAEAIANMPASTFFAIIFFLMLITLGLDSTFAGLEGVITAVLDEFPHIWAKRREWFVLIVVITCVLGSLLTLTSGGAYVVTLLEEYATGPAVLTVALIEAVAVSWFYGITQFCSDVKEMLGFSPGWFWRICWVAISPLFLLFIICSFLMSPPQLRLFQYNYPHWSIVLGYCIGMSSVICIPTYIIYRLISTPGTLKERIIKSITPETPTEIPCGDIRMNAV

One may read the Ki as a dissociation constant, usually derived from enzyme kinetics or from competition with a known ligand. A higher Ki goes with a looser hold on the target. Usually EC50 stands for the concentration giving half of the maximal effect. As usually defined, the Emax is the maximal effect, on the per cent scale that the assay sets. As for `CCCN(CCc1c[nH]c2ccc(F)cc12)C1COc2ccc3ncccc3c2C1` (centres unmarked) [Compound 6, N-[2-(5-fluoro-1H-indol-3-yl)ethyl]-N-propyl-2,3-dihydro-1H-pyrano[3,2-f]quinolin-2-amine], the Ki amounted to 478 nM in test [1] and 40 nM in test [3]. The EC50 in test [2] came to 190 nM. Besides, in test [2], the Emax amounted to 41.3%.
The corresponding values for `Fc1ccc2[nH]cc(CCCNC3COc4c(ccc5ncccc45)C3)c2c1` (centres unmarked) [Compound 7, N-[3-(5-fluoro-1H-indol-3-yl)propyl]-3,4-dihydro-2H-pyrano[2,3-f]quinolin-3-amine] are 13.6 nM, 2.83 nM, 1200 nM and 100%.
